Drawing on PubChem BioAssay AID1259371 (The Scripps Research Institute Molecular Screening Center, 2018), this text covers IC50 for 36 molecules.

Usually IC50 stands for the midpoint of a concentration-inhibition curve. The term pIC50 denotes the IC50 on a negative log10 scale, so that one unit is a factor of ten.

pIC50: −log10 of the molar value. Activity calls are given as the source filed them. How the calls were made is not given here.

Microphthalmia-associated transcription factor (Homo sapiens), sequence (O75030 whole entry, looked up): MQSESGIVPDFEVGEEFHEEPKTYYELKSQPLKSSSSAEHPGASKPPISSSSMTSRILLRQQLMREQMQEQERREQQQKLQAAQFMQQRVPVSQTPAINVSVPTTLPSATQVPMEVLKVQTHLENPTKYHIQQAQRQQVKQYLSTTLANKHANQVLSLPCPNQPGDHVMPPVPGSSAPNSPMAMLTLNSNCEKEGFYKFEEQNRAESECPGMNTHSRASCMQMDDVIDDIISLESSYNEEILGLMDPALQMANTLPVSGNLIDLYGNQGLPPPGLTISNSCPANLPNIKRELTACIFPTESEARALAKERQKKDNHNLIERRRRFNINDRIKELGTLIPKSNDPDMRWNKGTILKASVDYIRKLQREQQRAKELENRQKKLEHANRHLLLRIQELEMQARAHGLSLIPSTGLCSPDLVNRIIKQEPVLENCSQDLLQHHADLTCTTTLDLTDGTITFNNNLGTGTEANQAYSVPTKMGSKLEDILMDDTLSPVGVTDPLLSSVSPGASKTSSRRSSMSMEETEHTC

This assay concerns the target Microphthalmia-associated transcription factor (Homo sapiens) (UniProt O75030). As to the kind of experiment: MITF inhibitors, potency by titration, dose response, biochemical, AlphaScreen, human (AID 1259371). The settings on record: AlphaScreen biochemical MITF assay, signal inhibition. Background: Bead proximity is the source of the signal in Alpha formats.
On to `Cc1ccc(C(=O)N/C(=C/c2ccc([N+](=O)[O-])o2)C(=O)O)cc1`, for which the IC50 entry is “inactive”. On the same count and under the same terms, the result for `O=C1N[C@@H](Cc2ccc(O)cc2)C(=O)N2CCN(C(=O)NC3CCCCC3)C[C@H]12` reads > 2.16 µM (inactive); that for `O=C(O)c1ccc(NC2OC(CO)C(O)C2O)cc1` (stereo unspecified), “inactive”; that for `O=C(c1ccncc1)N1CCN(Cc2ccccc2[N+](=O)[O-])CC1`, > 6.13 µM (inactive). Turning to `Cc1ccc(C)n1C(CC(=O)O)c1ccsc1` (stereo unspecified), the pIC50 was 6.59. Take `O=C(/C=C/c1ccco1)NCC(=O)N/N=C/c1ccc(C(=O)O)cc1`: the IC50 entry was “inactive”. Turning to `COc1ccc(C)cc1NC(=O)C(NCC(O)c1ccccc1)c1ccccc1` (stereo unspecified), the IC50 result is “inactive”. The same measure, in the same setting: next, `O=C(Nc1ccc(-c2cn[nH]c2)c(C(F)(F)F)c1)C1COc2ccccc2O1` (stereo unspecified): > 2.16 µM (inactive); `Cc1cccc(OCC(=O)N2CCN(Cc3cccc(Br)c3)CC2)c1`: > 6.48 µM (inactive). As to `CCOC(=O)N1CCN(C(=S)Nc2ccc(OCC)cc2)CC1`, the IC50 entry was “inactive”. On the same count and under the same terms, the result for `O=c1c(O)c(-c2ccc(O)cc2O)oc2cc(O)cc(O)c12` reads “inactive”; that for `CN(c1cccc(NS(=O)(=O)c2ccc([N+](=O)[O-])cc2)c1)S(C)(=O)=O`, > 6.48 µM (inactive). Same read-out and setting: next, `C=CCNC(=O)COC(=O)c1cc(-c2ccco2)nc2ccccc12`: > 2.31 µM (inactive).

Take `O=C(O)c1cc(NN=C2CCCC2)ccc1Cl`: the pIC50 was 6.39. Consider `CCOC(=O)N1CCC(NC(=O)CCc2nc(C3=CCN(C)CC3)no2)CC1`, for which the IC50 result is “inactive”.

In the case of `O=C1c2c(O)cccc2Cc2cccc(O)c21`, the pIC50 was 6.64. With `COCCCNC(=O)/C(C#N)=C/c1ccc(-c2ccc(C(=O)O)c(Cl)c2)o1`, the IC50 result was “inactive”. `O=C(O)c1cc(S(=O)(=O)Nc2ccc(-n3cnnn3)cc2)ccc1O`: the IC50 result is “inactive”. Consider `O=S(=O)(N=S(=O)(/C=C/c1ccccc1)c1ccccc1)c1ccccc1` (stereo unspecified), for which the IC50 was > 5.36 µM (inactive). Still for that read-out and setting: next, `O=C1OC(c2cccc([N+](=O)[O-])c2)=N/C1=C\c1ccc(OCc2ccccc2)cc1`: > 4.62 µM (inactive); `CN1C(=O)[C@H]2CN(C(=O)NC3CCCCC3)CCN2C(=O)[C@@H]1Cc1ccccc1`: “inactive”.

As to `Cn1c(SCc2cc(=O)n3c(n2)sc2ccccc23)nnc1C(F)(F)F`, the IC50 result was “inactive”. In the case of `Cc1ccc(C)n1C(Cc1c[nH]c2ccccc12)C(=O)O` (stereo unspecified), the pIC50 was 6.17. Take `O=C(/C=C/c1ccco1)NC(=S)Nc1ccc(Cl)c(C(=O)O)c1`: the pIC50 is 6.28. Turning to `O=C(CSc1nsc(SCC(=O)Nc2ccc(Cl)c(Cl)c2)n1)Nc1ccc(Cl)c(Cl)c1`, the IC50 entry is “inactive”. Same read-out and setting: next, `NC(=O)c1ccc2nc(-c3cccs3)sc2c1`: > 6.18 µM (inactive); `O=C1O[C@H](C(O)CO)C(O)=C1O` (stereo partly specified): “inactive”; `CN(C)CCS(=O)c1cc(-c2cn[nH]c2)ccc1NC(=O)[C@@H]1Cc2cc(F)ccc2CN1` (stereo partly specified): “inactive”. Turning to `O=C(Nc1cc(S(=O)(=O)O)cc2cc(S(=O)(=O)O)cc(O)c12)c1ccccc1`, the pIC50 is 6.02.

On to `O=C(C1CCC(Nc2nccc(-c3ccc4nc(C5CC5)[nH]c(=O)c4c3)n2)CC1)N1CCCC1` (stereo unspecified), for which the IC50 result is “inactive”. In the case of `CC(C)NC(=O)/C(C#N)=C/c1ccc(-c2ccc([N+](=O)[O-])cc2Br)o1`, the pIC50 is 6.50. For `O=C(NCc1ccccc1)N1CCN2C(=O)[C@@H]3CCCN3C(=O)[C@H]2C1`, the IC50 result was “inactive”. In the case of `S=c1[nH]nc(-c2cccnc2)n1/N=C/C=C/c1ccco1`, the pIC50 is 6.33. For the molecule `CN(C)CCCNC(=O)c1cccc(CN(C(=O)c2nc3ccc(-c4cn[nH]c4)cc3s2)C2CC2)c1`, the IC50 result was “inactive”. The same measure, in the same setting: the result for `COc1ccc2c(c1)CC(C(=O)Nc1ccc(-c3cn[nH]c3)cc1C(=O)N(C)OC)CO2` (stereo unspecified) reads “inactive”. `CC1=NN(c2ccc(C(=O)O)c(N)c2)C(=O)C1`: the IC50 entry is “inactive”.
